Measured values: ChEMBL document CHEMBL1201862, “PubChem BioAssay data set” (2004)
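Tested at 5 concentrations; 48 h exposure; 96-well plates; endpoints linearly interpolated, else capped at highest concentration. At the GI50, growth is halved.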 Activity calls are given as the source filed them. Cut-off read from the data, not from the text of the source: active = GI50 up to about 1.1 µM and inactive = higher.

Tests used:
Assay in all cases: NCI anticancer screen, dose series, 48 h
[1] = test system: OVCAR-3
[2] = test system: HCT-15
[3] = test system: OVCAR-8
[4] = test system: OVCAR-4
[5] = test system: MOLT-4
[6] = test system: EKVX
[7] = test system: LOX IMVI
[8] = test system: SK-OV-3
[9] = test system: HT-29
[10] = test system: SR
[11] = test system: TK-10
[12] = test system: SK-MEL-5
[13] = test system: ACHN
[14] = test system: HL-60
[15] = test system: SF-295
[16] = test system: CCRF-CEM
[17] = test system: K562
[18] = test system: KM12
[19] = test system: DU-145

SMILES | GI50 [1] | GI50 [2] [µM] | GI50 [3] | GI50 [4] | GI50 [5] | GI50 [6] | GI50 [7] | GI50 [8] | GI50 [9] | GI50 [10] | GI50 [11] | GI50 [12] | GI50 [13] | GI50 [14] | GI50 [15] | GI50 [16] | GI50 [17] | GI50 [18] | GI50 [19]
CCCCCCCCCCCCCCCc1nnc(SCC(=O)O)[nH]1 | > 100 µM (inactive) | 31.6 | 40.8 µM (inactive) | 45.7 µM (inactive) | 11.7 µM (inactive) | > 100 µM (inactive) | 33.4 µM (inactive) | 45.4 µM (inactive) | 31.7 µM (inactive) | 60 µM (inactive) | 13.2 µM (inactive) | > 100 µM (inactive) | 47.3 µM (inactive) | 34.8 µM (inactive) | 40 µM (inactive) | 24.2 µM (inactive) | 16.4 µM (inactive) | 48.3 µM (inactive) | –
CCCC1C[C@H]2CCCCN2[C@H]2CCCN12 (some centres not stated) | > 100 µM (inactive) | > 46.7 | > 100 µM (inactive) | > 100 µM (inactive) | > 100 µM (inactive) | > 100 µM (inactive) | > 39.4 µM (inactive) | > 100 µM (inactive) | > 100 µM (inactive) | > 40.6 µM (inactive) | > 100 µM (inactive) | > 100 µM (inactive) | > 100 µM (inactive) | > 37.8 µM (inactive) | > 100 µM (inactive) | > 45.9 µM (inactive) | > 50.2 µM (inactive) | > 100 µM (inactive) | –
COc1ccc(OC)c([N+](=O)[O-])c1-c1nc2sc(Cl)cn2c1/C=N/N=C(N)N | 16 µM (inactive) | 41.2 | 19.2 µM (inactive) | 12.2 µM (inactive) | 4.9 µM (inactive) | 25.6 µM (inactive) | 25 µM (inactive) | – | 15.5 µM (inactive) | 14.2 µM (inactive) | 25.2 µM (inactive) | 14.4 µM (inactive) | 28.6 µM (inactive) | 11.2 µM (inactive) | 24.9 µM (inactive) | 30.9 µM (inactive) | 7.53 µM (inactive) | 15.4 µM (inactive) | 21.8 µM (inactive)
NS(=O)(=O)c1nnc(NS(=O)(=O)c2ccc([N+](=O)[O-])cc2)s1 | > 100 µM (inactive) | > 100 | > 100 µM (inactive) | > 100 µM (inactive) | 26.3 µM (inactive) | > 100 µM (inactive) | 30.4 µM (inactive) | > 100 µM (inactive) | > 100 µM (inactive) | 32.7 µM (inactive) | > 100 µM (inactive) | 69.2 µM (inactive) | > 100 µM (inactive) | > 100 µM (inactive) | > 100 µM (inactive) | – | 33.6 µM (inactive) | > 100 µM (inactive) | > 100 µM (inactive)
COc1cccc(CCNc2c(C#N)c3nc4ccccc4n3c3ccccc23)c1 | 3.87 µM (inactive) | 0.423 | 0.807 µM (active) | 2.79 µM (inactive) | 0.769 µM (active) | 2.09 µM (inactive) | 0.63 µM (active) | 1.18 µM (inactive) | 0.337 µM (active) | 0.177 µM (active) | 4.6 µM (inactive) | 0.186 µM (active) | 0.998 µM (active) | 0.34 µM (active) | 0.364 µM (active) | 0.736 µM (active) | 0.141 µM (active) | 0.258 µM (active) | 2.29 µM (inactive)
NC(=S)NNC(=O)/C(=C/c1ccc(/C=C(\NC(=O)c2ccccc2)C(=O)NNC(N)=S)cc1)NC(=O)c1ccccc1 | > 100 µM (inactive) | > 100 | 64 µM (inactive) | 97.5 µM (inactive) | 13.8 µM (inactive) | > 100 µM (inactive) | 34.1 µM (inactive) | > 100 µM (inactive) | > 100 µM (inactive) | 26.1 µM (inactive) | > 100 µM (inactive) | 66.2 µM (inactive) | > 100 µM (inactive) | 15.6 µM (inactive) | > 100 µM (inactive) | 34.3 µM (inactive) | 19.1 µM (inactive) | > 100 µM (inactive) | –
CC(=O)C1Cn2c(=O)c3cc4ccccc4cc3c(=O)n2C=C1C (configuration not stated) | > 100 µM (inactive) | 76.7 | > 100 µM (inactive) | > 100 µM (inactive) | > 100 µM (inactive) | > 100 µM (inactive) | > 100 µM (inactive) | > 100 µM (inactive) | – | > 100 µM (inactive) | > 100 µM (inactive) | 91.4 µM (inactive) | > 100 µM (inactive) | > 100 µM (inactive) | > 100 µM (inactive) | > 100 µM (inactive) | > 100 µM (inactive) | > 100 µM (inactive) | –
O=C(c1cccs1)N(C(=S)N1CCN(c2ccccn2)CC1)C1CCCCC1 | 57.3 µM (inactive) | 78 | > 100 µM (inactive) | > 100 µM (inactive) | 33 µM (inactive) | – | 77.4 µM (inactive) | > 100 µM (inactive) | 52 µM (inactive) | 36.6 µM (inactive) | > 100 µM (inactive) | 31.3 µM (inactive) | 69.2 µM (inactive) | > 100 µM (inactive) | > 100 µM (inactive) | 81.1 µM (inactive) | 47 µM (inactive) | 60.5 µM (inactive) | –
N#C/C(=C(/S)Nc1ccccc1)c1nc2ccccc2[nH]1 | > 10 µM (inactive) | > 10 | > 10 µM (inactive) | > 10 µM (inactive) | > 10 µM (inactive) | > 10 µM (inactive) | > 10 µM (inactive) | 0.634 µM (active) | – | > 10 µM (inactive) | > 10 µM (inactive) | > 10 µM (inactive) | > 10 µM (inactive) | > 10 µM (inactive) | – | > 10 µM (inactive) | > 10 µM (inactive) | > 10 µM (inactive) | –
Cc1ccc(S(=O)(=O)Nc2cccc3c(=O)nc[nH]c23)cc1 | > 100 µM (inactive) | 61.5 | > 100 µM (inactive) | > 100 µM (inactive) | 34.3 µM (inactive) | > 100 µM (inactive) | 96.6 µM (inactive) | > 100 µM (inactive) | > 100 µM (inactive) | 10.7 µM (inactive) | > 100 µM (inactive) | 43.9 µM (inactive) | 66.8 µM (inactive) | 23.3 µM (inactive) | 82.6 µM (inactive) | 37.2 µM (inactive) | 43.6 µM (inactive) | > 100 µM (inactive) | –
O=[N+]([O-])c1ccc(C[P+]2(c3ccccc3)CCCCC2)cc1.[O-][Cl+3]([O-])([O-])[O-] | > 100 µM (inactive) | 72.1 | > 100 µM (inactive) | – | > 100 µM (inactive) | > 100 µM (inactive) | > 100 µM (inactive) | > 100 µM (inactive) | > 100 µM (inactive) | > 100 µM (inactive) | > 100 µM (inactive) | > 100 µM (inactive) | > 100 µM (inactive) | > 100 µM (inactive) | > 100 µM (inactive) | > 100 µM (inactive) | > 100 µM (inactive) | > 100 µM (inactive) | –
C=C1c2nc3ccccc3n2C=C(c2ccccc2)N1c1ccc(C)cc1 | 75 µM (inactive) | 35.4 | 48.5 µM (inactive) | 71.8 µM (inactive) | 20.6 µM (inactive) | > 100 µM (inactive) | 33.6 µM (inactive) | > 100 µM (inactive) | – | 10.3 µM (inactive) | 79.3 µM (inactive) | 25.7 µM (inactive) | 53.5 µM (inactive) | – | > 100 µM (inactive) | 55.6 µM (inactive) | 31.5 µM (inactive) | 22.7 µM (inactive) | > 100 µM (inactive)
Cc1ccc(NC(=O)CC/C(CC(=O)c2ccc(Cl)cc2)=N\NC(=O)C(=O)NN)cc1C | > 100 µM (inactive) | > 100 | > 100 µM (inactive) | > 100 µM (inactive) | > 100 µM (inactive) | > 100 µM (inactive) | > 100 µM (inactive) | > 100 µM (inactive) | > 100 µM (inactive) | > 100 µM (inactive) | > 100 µM (inactive) | > 100 µM (inactive) | > 100 µM (inactive) | > 100 µM (inactive) | > 100 µM (inactive) | > 100 µM (inactive) | > 100 µM (inactive) | > 100 µM (inactive) | –
CC(C)(C)C1=CC(=C2C=Cc3cc(O)ccc3O2)C=C(C(C)(C)C)C1=O | 1.21 µM (inactive) | 1.79 | 1.7 µM (inactive) | 1.31 µM (inactive) | 0.435 µM (active) | 1.85 µM (inactive) | 1.56 µM (inactive) | 2.21 µM (inactive) | 1.65 µM (inactive) | 0.731 µM (active) | 1.7 µM (inactive) | 1.58 µM (inactive) | 1.69 µM (inactive) | 1.08 µM (active) | 1.87 µM (inactive) | 0.745 µM (active) | 2.13 µM (inactive) | 1.58 µM (inactive) | 1.45 µM (inactive)
COc1cc(C2c3cc4c(cc3[C@@H](N(C)c3ccc(N(C)C)cc3)C3COC(=O)C23)OCO4)cc(OC)c1O (some centres not stated) | 0.213 µM (active) | 0.449 | 0.365 µM (active) | 9.57 µM (inactive) | 0.434 µM (active) | 15.8 µM (inactive) | 0.437 µM (active) | 0.402 µM (active) | 0.269 µM (active) | 0.427 µM (active) | 18.5 µM (inactive) | 0.383 µM (active) | 0.774 µM (active) | 0.362 µM (active) | 0.147 µM (active) | 0.343 µM (active) | 0.329 µM (active) | 0.377 µM (active) | –
CCOc1ccc(NCc2cc(OC)c(OC)c(OC)c2)cc1 | 0.339 µM (active) | 0.335 | – | 41.6 µM (inactive) | 0.582 µM (active) | 34.9 µM (inactive) | 0.643 µM (active) | 0.706 µM (active) | 0.366 µM (active) | 0.256 µM (active) | – | 0.506 µM (active) | 10.7 µM (inactive) | 0.257 µM (active) | 0.306 µM (active) | – | 0.215 µM (active) | 0.276 µM (active) | 2.57 µM (inactive)
